Assay results taken from BindingDB's records for patent US20250051319 (Augustine Therapeutics, 2025).

Key:
Histone deacetylase 6 = molecular target: T1, Histone deacetylase 6 (Homo sapiens, UniProt Q9UBN7); experiment: HDAC6 Enzymatic Activity Assay
T1 sequence (Q9UBN7 whole entry): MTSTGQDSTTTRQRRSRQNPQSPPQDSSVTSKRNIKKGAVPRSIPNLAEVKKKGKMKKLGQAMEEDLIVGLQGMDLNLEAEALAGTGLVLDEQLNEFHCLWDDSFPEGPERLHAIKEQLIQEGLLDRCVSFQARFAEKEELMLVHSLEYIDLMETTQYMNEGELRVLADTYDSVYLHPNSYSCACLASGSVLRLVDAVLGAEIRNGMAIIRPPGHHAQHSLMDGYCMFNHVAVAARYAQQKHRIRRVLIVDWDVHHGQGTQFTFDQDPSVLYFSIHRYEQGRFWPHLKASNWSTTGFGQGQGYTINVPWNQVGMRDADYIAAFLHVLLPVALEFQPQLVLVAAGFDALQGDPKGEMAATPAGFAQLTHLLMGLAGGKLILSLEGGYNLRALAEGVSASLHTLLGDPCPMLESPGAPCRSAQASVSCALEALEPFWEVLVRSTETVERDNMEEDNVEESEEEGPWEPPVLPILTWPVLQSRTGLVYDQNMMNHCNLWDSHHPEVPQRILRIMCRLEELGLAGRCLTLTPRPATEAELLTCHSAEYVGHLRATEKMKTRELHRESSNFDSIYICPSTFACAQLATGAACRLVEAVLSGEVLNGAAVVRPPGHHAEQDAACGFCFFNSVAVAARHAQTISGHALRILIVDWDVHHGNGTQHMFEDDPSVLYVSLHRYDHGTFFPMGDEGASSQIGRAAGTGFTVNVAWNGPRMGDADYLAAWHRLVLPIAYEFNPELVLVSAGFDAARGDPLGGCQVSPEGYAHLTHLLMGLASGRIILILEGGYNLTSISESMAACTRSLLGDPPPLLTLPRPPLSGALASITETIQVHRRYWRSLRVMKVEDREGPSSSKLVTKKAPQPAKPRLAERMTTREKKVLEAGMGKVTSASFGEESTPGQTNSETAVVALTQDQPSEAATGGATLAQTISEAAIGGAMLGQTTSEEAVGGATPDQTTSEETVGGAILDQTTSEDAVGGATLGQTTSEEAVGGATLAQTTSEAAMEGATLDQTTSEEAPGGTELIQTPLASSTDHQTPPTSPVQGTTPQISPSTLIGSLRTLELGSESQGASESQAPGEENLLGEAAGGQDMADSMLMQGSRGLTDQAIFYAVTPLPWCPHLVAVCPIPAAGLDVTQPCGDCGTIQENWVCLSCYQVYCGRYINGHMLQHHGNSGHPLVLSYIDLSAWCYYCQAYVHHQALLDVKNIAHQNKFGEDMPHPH
Procedure: Dose response testing of HDAC6 and HDAC 1 were run at Reaction Biology Corporation (RBC). […] 2× enzyme was delivered in the wells of the reaction plate except for the “no enzyme” control wells. In the latter, buffer was added. Compounds in 100% DMSO were delved into the enzyme mixture by acoustic technology (Echo550). Plates are spun down and compounds were incubation with the enzyme for 10 min at room temperature. […] Developer containing Trichostatin A was added to stop the reaction and generate fluorescent color. A kinetic measurement was carried out for 20 min with 5 min interval on the Envision plate reader (Perkin Elmer, Ex/Em=360/460). End point reading i.e., plateau of the development reaction was used for analysis. Data was reported by RBC as percentage enzyme activity. Percentage inhibition was calculated by subtracting percentage enzyme activity from 100. IC50 values were calculated using GraphPad Prism 9 based on the log(inhibitor) vs. response—Variable slope (four parameters) equation.

[1] = molecular target: T2, Histone deacetylase 6 [482-800] (Homo sapiens, UniProt Q9UBN7); experiment: Cellular Target Engagement Assay
T2 construct: 482-800
T2 sequence (Q9UBN7 whole entry): T1 sequence (Q9UBN7 whole entry)
Procedure: NanoBRET target engagement was performed against the catalytic domain 2 (CD2) of HDAC6, with minor modifications of kit manufacturer protocol (Promega). Expression of exogenous NanoLuc-HDAC6(CD2) fusion and in HEK293T was achieved following transient transfection with FuGENE HD Transfection Reagent (Promega). […] Compounds (dissolved in 100% DMSO) or DMSO (vehicle) were added either manually by diluting them in culture medium at 8× final assay concentration and then adding 5 μL to assay plate or in an automated way by adding 160 nL compound to 5 μL OptiMEM without phenol red (Gibco) using the Echo650 (Labcyte). Tracer solution was added to the cells before seeding 35 μL cell/tracer mixture in the assay plate. […] Assay plates were incubated at 37° C. in a humidified atmosphere containing 5% C02 for 2 hours. […] BRET ratios were calculated from acceptor/donor signal ratio (mBRET=acceptor/donor*1000) and normalized for each plate. Percentage inhibition was calculated by setting the mBRET obtained with cells without tracer to 100%, while the mBRET obtained with uninhibited cells with tracer was set to 0%. IC50-values were calculated from the percentage inhibition with the log(inhibitor) vs. response—Variable slope (four parameters) nonlinear regression in GraphPad Prism software.

With `COCC(=O)NCc1ccc(C(=O)CSc2nc(C)nc3ncc(OC)cc23)s1` [US20250051319, Compound 163] the IC50 (Histone deacetylase 6) was < 100 nM.

With `O=C(CSc1nc(C(F)(F)F)nc2ncccc12)c1ccc(CN2CC[C@@H](O)C2=O)s1` [US20250051319, Compound 155] the IC50 [1] was < 100 nM.
